From patent US8962689B2, “Medium chain dicarboxylic acids, their derivates and metabolic disorders” (Nestec S.A., priority 2008, dated 2015)

Tests used:
Format in all cases: in vivo, human
healthy subjects = test: Cross-over single-blind pilot study, mixed formula meal with sebacic acid (C10), healthy subjects; conditions: for Glucose AUC / Insulin AUC / Total ISR (insulin secretion rate): 0-420 minutes, mean
Protocol: (§1) Ingestion of the different meals was performed at 100 min.
(§2) The acute effects of oral ingestion of sebacic acid on postprandial glycemia, hepatic gluconeogenesis and glycogenolysis were tested in T2D subjects and healthy volunteers during ingestion of a mixed meal at breakfast.
(§3) Type 2 diabetic patients and healthy subjects were matched for gender distribution, age, and body mass index as reported in the following table 1:
(§4) The subjects ingested the following formula meal
(§5) No C10 group (control group): 50% CHO, 15% protein and 35% lipids plus water
(§6) 10 g C10 group: 50% CHO, 15% protein and 35% lipids plus 10 g of C10 plus water

T2D subjects = test: Cross-over single-blind pilot study, mixed formula meal with sebacic acid (C10), T2D subjects; conditions: for EGP (endogenous glucose production) / Gluconeogenesis / Glucose clearance / Total Ra (rate of appearance of deuterated glucose) / Glucose AUC / Insulin AUC / Total ISR (insulin secretion rate): type 2 diabetic subjects; for Glucose AUC / Insulin AUC / Total ISR (insulin secretion rate): 0-420 minutes, mean
Protocol: as §1, §2, §3, §4, §5, §6

[1] = Time course of plasma sebacate in healthy subjects
Protocol: FIG. 4 reports the time course of plasma sebacate in healthy subjects.
FIG. 4 reports the time course of plasma sebacate in healthy subjects. The peak was reached after 320 minutes from the beginning of the experiment, i.e. […] after the ingestion of the meal enriched with C10. C10 peaked later (delay of 40 minutes) after 23 g C10 ingestion.

[2] = Time course of plasma sebacate in T2D subjects
Protocol: FIG. 5 reports the time course of plasma sebacate in T2D subjects.
FIG. 5 reports the time course of plasma sebacate in T2D subjects. […] Another difference was that in diabetics the two curves (10 g vs. 23 g) were overlapped up to 320 minutes, and then the concentration of C10 declined slower in the 23 g C10 fed patients compared with 10 g of C10.

[3] = healthy subjects, 10 g C10 meal
[4] = healthy subjects, 23 g C10 meal
[5] = T2D subjects (n=10), 10 g meal, vs control meal
[6] = T2D subjects (n=10), 23 g C10 DA meal, vs control meal

SMILES: O=C(O)CCCCCCCCC(=O)O [C10, sebacic acid]
- Change in postprandial insulinemia AUC (healthy subjects; healthy subjects (n=10), 23 g sebacic acid, vs control meal): −38%
- EGP (endogenous glucose production) (healthy subjects; [3]): 6.30 ± 2.45 μmol · min^−1 · kgffm^−1
- Gluconeogenesis (healthy subjects; [3]): 31.28 ± 5.07%
- Glucose clearance (healthy subjects; [3]): 2.73 ± 0.24 mL/min/kg
- Total Ra (rate of appearance of deuterated glucose) (healthy subjects; [3]): 20.60 ± 2.88 μmol · min^−1 · kgffm^−1
- Glucose AUC (healthy subjects; [3]): 37400 mg·min/dL
- Insulin AUC (healthy subjects; [3]): 51100 pM·min
- Total ISR (insulin secretion rate) (healthy subjects; [3]): 101.15 nmol
- EGP (endogenous glucose production) (healthy subjects; [4]): 6.172 ± 0.68 μmol · min^−1 · kgffm^−1
- Gluconeogenesis (healthy subjects; [4]): 31.20 ± 3.63%
- Glucose clearance (healthy subjects; [4]): 2.74 ± 0.26 mL/min/kg
- Total Ra (rate of appearance of deuterated glucose) (healthy subjects; [4]): 21.20 ± 1.30 μmol · min^−1 · kgffm^−1
- Glucose AUC (healthy subjects; [4]): 38100 mg·min/dL
- Insulin AUC (healthy subjects; [4]): 39200 pM·min
- Total ISR (insulin secretion rate) (healthy subjects; [4]): 93.60 nmol
- Glucose clearance, result in words (healthy subjects; healthy subjects, C10 ingestion): significantly improved
- ISR, result in words (healthy subjects; healthy subjects, meal with lipids substituted with 23 g C10): significantly reduced
- Change in postprandial Endogenous Glucose Production (T2D subjects; [5]): −10%
- Change in postprandial Gluconeogenesis (%) (T2D subjects; [5]): −2.1%
- Change in postprandial glycemia area under the curve (AUC) (T2D subjects; [5]): −17%
- Increase in postprandial glucose clearance (T2D subjects; [5]): +12.6%
- Change in postprandial Endogenous Glucose Production (T2D subjects; [6]): −9%
- Change in postprandial Gluconeogenesis (%) (T2D subjects; [6]): −2.3%
- Change in postprandial glycemia area under the curve (AUC) (T2D subjects; [6]): −16%
- Change in postprandial insulin secretion rate (T2D subjects; [6]): −35%
- Increase in postprandial glucose clearance (T2D subjects; [6]): +8.2%
- Glucose clearance, result in words (T2D subjects; diabetic patients, C10 ingestion): significantly improved
- GNG, result in words (T2D subjects; diabetic patients, both C10 enriched meals): significantly reduced
- Glucose AUC, result in words (T2D subjects; diabetic patients, meal containing 10 g of C10): significantly lower
- ISR, result in words (T2D subjects; diabetic patients, meal with lipids substituted with 23 g C10): significantly reduced
- EGP (endogenous glucose production) (T2D subjects; 10 g C10 meal): 7.81 ± 3.27 μmol · min^−1 · kgffm^−1
- Gluconeogenesis (T2D subjects; 10 g C10 meal): 40.862 ± 3.62 %
- Glucose clearance (T2D subjects; 10 g C10 meal): 1.76 ± 0.13 mL/min/kg
- Total Ra (rate of appearance of deuterated glucose) (T2D subjects; 10 g C10 meal): 19.60 ± 2.41 μmol · min^−1 · kgffm^−1
- Glucose AUC (T2D subjects; 10 g C10 meal): 43700 mg·min/dL
- Insulin AUC (T2D subjects; 10 g C10 meal): 33500 pM·min
- Total ISR (insulin secretion rate) (T2D subjects; 10 g C10 meal): 213.69 nmol
- EGP (endogenous glucose production) (T2D subjects; 23 g C10 meal): 7.00 ± 2.47 μmol · min^−1 · kgffm^−1
- Gluconeogenesis (T2D subjects; 23 g C10 meal): 40.72 ± 4.00 %
- Glucose clearance (T2D subjects; 23 g C10 meal): 1.71 ± 0.21 mL/min/kg
- Total Ra (rate of appearance of deuterated glucose) (T2D subjects; 23 g C10 meal): 20.32 ± 2.19 μmol · min^−1 · kgffm^−1
- Glucose AUC (T2D subjects; 23 g C10 meal): 44200 mg·min/dL
- Insulin AUC (T2D subjects; 23 g C10 meal): 29500 pM·min
- Total ISR (insulin secretion rate) (T2D subjects; 23 g C10 meal): 142.27 nmol
- EGP, result in words (T2D subjects; type 2 diabetics, C10 enriched meals compared with the standard meal): significantly reduced
- Delay of plasma C10 peak after 23 g C10 ingestion ([1]; 23 g C10 ingestion): 40 min
- Time of plasma sebacate peak after the ingestion of the meal ([1]; oral, meal enriched with C10): 200 min
- Time of plasma sebacate peak from the beginning of the experiment ([1]; oral, meal enriched with C10): 320 min
- Plasma C10 peak times compared with controls ([2]; T2D subjects): the peak times were maintained
- Plasma C10 concentration relative to values reached in controls ([2]; T2D subjects vs healthy controls): about 1.5 times
